# System: MV-4-11 cells
# Experiment: Gene expression microarray analysis (Affymetrix PrimeView) and GSEA
# Type: cell-based, human
# Design: RFU PODN (11730768_x_at) / Fold change /veh PODN (11730768_x_at) / RFU LINC00158 (11744669_a_at) / Fold change /veh LINC00158 (11744669_a_at) / RFU DUSP10 (11751237_a_at) / Fold change /veh DUSP10 (11751237_a_at) / RFU ID3 (11757404_x_at) / Fold change /veh ID3 (11757404_x_at) / RFU PLEKHG5 (11737974_s_at) / Fold change /veh PLEKHG5 (11737974_s_at) / RFU LRRC4B (11730491_at) / Fold change /veh LRRC4B (11730491_at) / RFU GIMAP4 (11747438_a_at) / Fold change /veh GIMAP4 (11747438_a_at) / RFU KRT8 (11758183_x_at) / Fold change /veh KRT8 (11758183_x_at) / RFU CNN1 (11734310_a_at) / Fold change /veh CNN1 (11734310_a_at) / RFU VPS37D (11726825_at) / Fold change /veh VPS37D (11726825_at) / RFU C10orf10 (11716522_x_at) / Fold change /veh C10orf10 (11716522_x_at) / RFU KIR2DL2 /// KIR2DL4 /// KIR2DL5A /// KIR2DL5B /// KIR2DS1 /// KIR2DS2 /// KIR2DS3 /// KIR2DS4 /// KIR3DL3 /// KIR3DL3 /// KIR3DS1 (11738374_at) / Fold change /veh KIR2DL2 /// KIR2DL4 /// KIR2DL5A /// KIR2DL5B /// KIR2DS1 /// KIR2DS2 /// KIR2DS3 /// KIR2DS4 /// KIR3DL3 /// KIR3DL3 /// KIR3DS1 (11738374_at) / RFU C1QL1 (11718748_at) / Fold change /veh C1QL1 (11718748_at) / RFU TMPRSS4 (11747572_a_at) / Fold change /veh TMPRSS4 (11747572_a_at) / RFU HAMP (11756126_x_at) / Fold change /veh HAMP (11756126_x_at) / RFU RNFT2 (11725882_a_at) / Fold change /veh RNFT2 (11725882_a_at) / RFU NR4A2 (11747474_a_at) / Fold change /veh NR4A2 (11747474_a_at) / RFU ABCC12 (11746883_a_at) / Fold change /veh ABCC12 (11746883_a_at) / RFU TMEM136 (11760407_x_at) / Fold change /veh TMEM136 (11760407_x_at) / RFU CLDN22 /// WWC2 (11732394_at) / Fold change /veh CLDN22 /// WWC2 (11732394_at) / RFU HLA-DPB1 (11760878_x_at) / Fold change /veh HLA-DPB1 (11760878_x_at) / RFU SPINT1 (11716480_a_at) / Fold change /veh SPINT1 (11716480_a_at) / RFU GAP43 (11754022_s_at) / Fold change /veh GAP43 (11754022_s_at) / RFU A4GNT (11735810_at) / Fold change /veh A4GNT (11735810_at) / RFU PRB3 (11715151_x_at) / Fold change /veh PRB3 (11715151_x_at) / RFU TUBB4B (11761932_at) / Fold change /veh TUBB4B (11761932_at) / RFU CAPN14 (11732068_a_at) / Fold change /veh CAPN14 (11732068_a_at) / RFU TMCC2 (11721928_a_at) / Fold change /veh TMCC2 (11721928_a_at) / RFU IRGQ (11745062_a_at) / Fold change /veh IRGQ (11745062_a_at) / RFU FAM174B (11720279_a_at) / Fold change /veh FAM174B (11720279_a_at) / RFU TMPRSS4 (11748680_a_at) / Fold change /veh TMPRSS4 (11748680_a_at) / RFU FAM212B (11763350_a_at) / Fold change /veh FAM212B (11763350_a_at) / RFU PLEKHG5 (11743358_a_at) / Fold change /veh PLEKHG5 (11743358_a_at) / RFU ZSCAN30 (11745921_a_at) / Fold change /veh ZSCAN30 (11745921_a_at) / RFU CMKLR1 (11741424_a_at) / Fold change /veh CMKLR1 (11741424_a_at) / RFU LOC101060620 /// MAPK8IP1 (11723275_at) / Fold change /veh LOC101060620 /// MAPK8IP1 (11723275_at) / RFU SPTSSB (11747773_x_at) / Fold change /veh SPTSSB (11747773_x_at) / RFU PRSS12 (11739890_at) / Fold change /veh PRSS12 (11739890_at) / RFU BIN1 (11741810_x_at) / Fold change /veh BIN1 (11741810_x_at) / RFU WNT11 (11732464_a_at) / Fold change /veh WNT11 (11732464_a_at) / RFU C10orf10 (11716521_a_at) / Fold change /veh C10orf10 (11716521_a_at) / RFU C5orf56 (11738089_at) / Fold change /veh C5orf56 (11738089_at) / RFU CYB561 (11721691_x_at) / Fold change /veh CYB561 (11721691_x_at) / RFU ANKRD19P (11752326_a_at) / Fold change /veh ANKRD19P (11752326_a_at) / RFU OR2T12 /// OR2T33 /// OR2T8 (11738714_s_at) / Fold change /veh OR2T12 /// OR2T33 /// OR2T8 (11738714_s_at) / RFU VCAN (11748164_a_at) / Fold change /veh VCAN (11748164_a_at) / RFU JSRP1 (11732532_at) / Fold change /veh JSRP1 (11732532_at) / RFU KRTAP10-11 (11738290_x_at) / Fold change /veh KRTAP10-11 (11738290_x_at) / RFU MYO3A (11730013_a_at) / Fold change /veh MYO3A (11730013_a_at) / RFU EBF3 (11725865_a_at) / Fold change /veh EBF3 (11725865_a_at) / RFU CAMK2N1 (11719241_x_at) / Fold change /veh CAMK2N1 (11719241_x_at) / RFU C5orf56 (11738088_a_at) / Fold change /veh C5orf56 (11738088_a_at) / RFU OLFML3 (11715873_a_at) / Fold change /veh OLFML3 (11715873_a_at) / RFU LOC100653217 /// NTM (11731650_a_at) / Fold change /veh LOC100653217 /// NTM (11731650_a_at) / RFU MAPK11 (11762145_a_at) / Fold change /veh MAPK11 (11762145_a_at) / RFU FIZ1 (11724087_x_at) / Fold change /veh FIZ1 (11724087_x_at) / RFU OASL (11726364_x_at) / Fold change /veh OASL (11726364_x_at) / RFU SOX15 (11748057_x_at) / Fold change /veh SOX15 (11748057_x_at) / RFU CD79A (11719716_a_at) / Fold change /veh CD79A (11719716_a_at) / RFU HIST1H1D (11736915_at) / Fold change /veh HIST1H1D (11736915_at) / RFU CASKIN2 (11723855_a_at) / Fold change /veh CASKIN2 (11723855_a_at) / RFU LOC730098 (11760151_x_at) / Fold change /veh LOC730098 (11760151_x_at) / RFU OR4N2 (11742367_at) / Fold change /veh OR4N2 (11742367_at) / RFU PRRT2 (11749266_a_at) / Fold change /veh PRRT2 (11749266_a_at) / RFU SNX32 (11753110_a_at) / Fold change /veh SNX32 (11753110_a_at) / RFU CDHR5 (11726645_a_at) / Fold change /veh CDHR5 (11726645_a_at) / RFU RCAN1 (11760418_a_at) / Fold change /veh RCAN1 (11760418_a_at) / RFU FAM167A (11723789_a_at) / Fold change /veh FAM167A (11723789_a_at) / RFU FAM26E (11764081_at) / Fold change /veh FAM26E (11764081_at) / RFU ISYNA1 (11749810_s_at) / Fold change /veh ISYNA1 (11749810_s_at) / RFU ACY1 (11761880_at) / Fold change /veh ACY1 (11761880_at) / RFU 11764098_at / Fold change /veh 11764098_at / RFU SAMD14 (11745864_x_at) / Fold change /veh SAMD14 (11745864_x_at) / RFU NPB (11741838_a_at) / Fold change /veh NPB (11741838_a_at) / RFU TMPRSS6 (11731388_a_at) / Fold change /veh TMPRSS6 (11731388_a_at) / RFU KRTAP10-2 (11738614_at) / Fold change /veh KRTAP10-2 (11738614_at) / RFU ARHGAP8 /// PRR5-ARHGAP8 (11727945_x_at) / Fold change /veh ARHGAP8 /// PRR5-ARHGAP8 (11727945_x_at) / RFU KRTAP5-7 /// NADSYN1 (11734609_at) / Fold change /veh KRTAP5-7 /// NADSYN1 (11734609_at) / RFU RASL12 (11751679_a_at) / Fold change /veh RASL12 (11751679_a_at) / RFU CDKN2B (11736163_a_at) / Fold change /veh CDKN2B (11736163_a_at) / RFU PRF1 (11729649_at) / Fold change /veh PRF1 (11729649_at) / RFU, ZNF638 /// ZNF638-IT1 / Fold change vs veh, ZNF638 /// ZNF638-IT1 / RFU, PANK3 / Fold change vs veh, PANK3 / RFU, SH3YL1 / Fold change vs veh, SH3YL1 / RFU, ZEB2 / Fold change vs veh, ZEB2 / RFU, NRIP1 / Fold change vs veh, NRIP1 / RFU, PTTG1IP / Fold change vs veh, PTTG1IP / RFU, CAPN2 / Fold change vs veh, CAPN2 / RFU, MED14 / Fold change vs veh, MED14 / RFU, SNORA58 / Fold change vs veh, SNORA58 / RFU, C1orf63 / Fold change vs veh, C1orf63 / RFU, LRRFIP1 / Fold change vs veh, LRRFIP1 / RFU, NDUFAF7 / Fold change vs veh, NDUFAF7 / RFU, SLC12A2 / Fold change vs veh, SLC12A2 / RFU, IBTK / Fold change vs veh, IBTK / RFU, ESF1 / Fold change vs veh, ESF1 / Fold change vs veh, TMEM50B / RFU, TAOK1 / Fold change vs veh, TAOK1 / RFU, ACBD3 / Fold change vs veh, ACBD3 / RFU, TMA16 / Fold change vs veh, TMA16 / RFU, RWDD3 / Fold change vs veh, RWDD3 / RFU, BCAT1 / Fold change vs veh, BCAT1 / RFU, EDEM3 / Fold change vs veh, EDEM3 / RFU, TMEM33 / Fold change vs veh, TMEM33 / RFU, WDR75 / Fold change vs veh, WDR75 / RFU, AHCTF1 / Fold change vs veh, AHCTF1 / RFU, TFRC / Fold change vs veh, TFRC / RFU, ZDHHC17 / Fold change vs veh, ZDHHC17 / RFU, NOM1 / Fold change vs veh, NOM1 / RFU, ARL8B / Fold change vs veh, ARL8B / RFU, ZBTB11 / Fold change vs veh, ZBTB11 / RFU, TAMM41 / Fold change vs veh, TAMM41 / RFU, KIAA1704 /// LOC100996395 / Fold change vs veh, KIAA1704 /// LOC100996395 / RFU, ING1 / Fold change vs veh, ING1 / RFU, TRMT61B / Fold change vs veh, TRMT61B / RFU, FUBP3 / Fold change vs veh, FUBP3 / RFU, TP53 / Fold change vs veh, TP53 / RFU, TNKS2 / Fold change vs veh, TNKS2 / RFU, ZFP14 / Fold change vs veh, ZFP14 / RFU, ACTR2 / Fold change vs veh, ACTR2 / RFU, PPP3R1 / Fold change vs veh, PPP3R1 / RFU, PIK3R1 / Fold change vs veh, PIK3R1 / RFU, HNRNPA1 / Fold change vs veh, HNRNPA1 / RFU, RNF170 / Fold change vs veh, RNF170 / RFU, ZNF28 / Fold change vs veh, ZNF28 / RFU, RNGTT / Fold change vs veh, RNGTT / RFU, OGT / Fold change vs veh, OGT / RFU, BRD1 / Fold change vs veh, BRD1 / RFU, MARS / Fold change vs veh, MARS / RFU, ZNF655 / Fold change vs veh, ZNF655 / RFU, FAHD1 / Fold change vs veh, FAHD1 / RFU, BDP1 / Fold change vs veh, BDP1 / RFU, LRRCC1 / Fold change vs veh, LRRCC1 / RFU, ARID1A / Fold change vs veh, ARID1A / RFU, ZNF146 / Fold change vs veh, ZNF146 / RFU, ZNF330 / Fold change vs veh, ZNF330 / RFU, GPN3 / Fold change vs veh, GPN3 / RFU, C9orf123 / Fold change vs veh, C9orf123 / RFU, N4BP2L2 / Fold change vs veh, N4BP2L2 / RFU, ARFIP1 / Fold change vs veh, ARFIP1 / RFU, FAM179B / Fold change vs veh, FAM179B / RFU, BCL10 / Fold change vs veh, BCL10 / RFU, UHRF1BP1L / Fold change vs veh, UHRF1BP1L / RFU, BET1 / Fold change vs veh, BET1 / RFU, CNOT2 / Fold change vs veh, CNOT2 / RFU, ZNF268 / Fold change vs veh, ZNF268 / Fold change vs veh, ZNF507 / RFU, DGCR2 / Fold change vs veh, DGCR2 / RFU, WDSUB1 / Fold change vs veh, WDSUB1 / Fold change vs veh, HSP90B1 /// MIR3652 / RFU, ADSS / Fold change vs veh, ADSS / RFU, GK / Fold change vs veh, GK / RFU, ZNF148 / Fold change vs veh, ZNF148 / RFU, TAF9 / Fold change vs veh, TAF9 / RFU, SLC1A5 / Fold change vs veh, SLC1A5 / RFU, SLMO2 / Fold change vs veh, SLMO2 / RFU, ABCC4 / Fold change vs veh, ABCC4 / RFU, LOC101060439 /// RAP1B / Fold change vs veh, LOC101060439 /// RAP1B / RFU, RFX7 / Fold change vs veh, RFX7 / RFU, GTPBP10 / Fold change vs veh, GTPBP10 / RFU, CNEP1R1 / Fold change vs veh, CNEP1R1 / RFU, BIVM-ERCC5 /// ERCC5 / Fold change vs veh, BIVM-ERCC5 /// ERCC5 / RFU, ILF3 / Fold change vs veh, ILF3 / RFU 11762660_at / Fold change /veh 11762660_at / RFU VCAN (11757783_s_at) / Fold change /veh VCAN (11757783_s_at) / RFU DDX43 (11728927_at) / Fold change /veh DDX43 (11728927_at) / RFU KRT8 (11758188_x_at) / Fold change /veh KRT8 (11758188_x_at) / RFU NKD1 (11759106_at) / Fold change /veh NKD1 (11759106_at) / RFU SRD5A1 (11742802_a_at) / Fold change /veh SRD5A1 (11742802_a_at) / RFU TPSAB1 /// TPSB2 (11721975_s_at) / Fold change /veh TPSAB1 /// TPSB2 (11721975_s_at) / RFU GSTM3 (11746129_a_at) / Fold change /veh GSTM3 (11746129_a_at) / RFU IL23R (11737362_x_at) / Fold change /veh IL23R (11737362_x_at) / RFU TMEM51 (11727254_a_at) / Fold change /veh TMEM51 (11727254_a_at) / RFU PIWIL2 (11732686_x_at) / Fold change /veh PIWIL2 (11732686_x_at) / RFU ORM1 (11744905_x_at) / Fold change /veh ORM1 (11744905_x_at) / RFU CCDC152 (11743942_at) / Fold change /veh CCDC152 (11743942_at) / RFU ECM1 (11717891_a_at) / Fold change /veh ECM1 (11717891_a_at) / RFU IL23R (11748794_a_at) / Fold change /veh IL23R (11748794_a_at) / RFU TNFAIP8L3 (11732012_x_at) / Fold change /veh TNFAIP8L3 (11732012_x_at) / RFU MBOAT4 (11741988_at) / Fold change /veh MBOAT4 (11741988_at) / RFU 11764193_at / Fold change /veh 11764193_at / RFU TMEM53 (11763286_at) / Fold change /veh TMEM53 (11763286_at) / RFU MAGEB2 (11727129_at) / Fold change /veh MAGEB2 (11727129_at) / RFU TMEM200A (11744735_a_at) / Fold change /veh TMEM200A (11744735_a_at) / RFU CCDC152 (11751479_a_at) / Fold change /veh CCDC152 (11751479_a_at) / RFU FAM211A (11726209_a_at) / Fold change /veh FAM211A (11726209_a_at) / RFU RGS16 (11746705_a_at) / Fold change /veh RGS16 (11746705_a_at) / RFU VCAN (11755009_s_at) / Fold change /veh VCAN (11755009_s_at) / RFU RHOB (11743442_s_at) / Fold change /veh RHOB (11743442_s_at) / RFU RGS16 (11720943_a_at) / Fold change /veh RGS16 (11720943_a_at) / RFU RGS16 (11720944_at) / Fold change /veh RGS16 (11720944_at) / RFU, VPS4B / Fold change vs veh, VPS4B / RFU, CREB1 / Fold change vs veh, CREB1 / RFU, DNAJC13 / Fold change vs veh, DNAJC13 / RFU, GNAQ / Fold change vs veh, GNAQ / RFU, CDK5R1 / Fold change vs veh, CDK5R1 / RFU, ZRANB3 / Fold change vs veh, ZRANB3 / RFU, CUL4A / Fold change vs veh, CUL4A / RFU, CCNY / Fold change vs veh, CCNY / RFU, UFL1 / Fold change vs veh, UFL1 / RFU, COG3 / Fold change vs veh, COG3 / RFU, DIAPH2 / Fold change vs veh, DIAPH2 / RFU, SKA2 / Fold change vs veh, SKA2 / RFU, AFF3 / Fold change vs veh, AFF3 / RFU, LMF1 / Fold change vs veh, LMF1 / RFU, IPO11 / Fold change vs veh, IPO11 / RFU, DFFB / Fold change vs veh, DFFB / RFU, FOXP1 / Fold change vs veh, FOXP1 / RFU, CARD8 / Fold change vs veh, CARD8 / RFU, STRN3 / Fold change vs veh, STRN3 / RFU, ADK / Fold change vs veh, ADK / RFU, RASSF2 / Fold change vs veh, RASSF2 / RFU, WIPF1 / Fold change vs veh, WIPF1 / RFU, LARP1B / Fold change vs veh, LARP1B / RFU, RASA1 / Fold change vs veh, RASA1 / RFU, RB1 / Fold change vs veh, RB1 / RFU, PPFIA1 / Fold change vs veh, PPFIA1 / RFU, MAT2A / Fold change vs veh, MAT2A / RFU, CCT5 / Fold change vs veh, CCT5 / RFU, WDR92 / Fold change vs veh, WDR92 / RFU, CUX1 / Fold change vs veh, CUX1 / RFU, TTC7A / Fold change vs veh, TTC7A / RFU, TMEM135 / Fold change vs veh, TMEM135 / RFU, DEPTOR / Fold change vs veh, DEPTOR / RFU, CPM / Fold change vs veh, CPM / RFU, DNAJB6 / Fold change vs veh, DNAJB6 / RFU, CACNA2D3 / Fold change vs veh, CACNA2D3 / RFU, DTX4 / Fold change vs veh, DTX4 / RFU, TFCP2 / Fold change vs veh, TFCP2 / RFU, GMCL1 /// GMCL1P1 / Fold change vs veh, GMCL1 /// GMCL1P1 / RFU, AEBP2 / Fold change vs veh, AEBP2 / RFU, SNHG1 /// SNORD22 /// SNORD25 /// SNORD26 /// SNORD27 /// SNORD28 /// SNORD29 /// SNORD31 / Fold change vs veh, SNHG1 /// SNORD22 /// SNORD25 /// SNORD26 /// SNORD27 /// SNORD28 /// SNORD29 /// SNORD31 / Fold change (Aza/veh), C12orf56 (ProbeSet 11735607_a_at) / Fold change (ACY-1035/veh), C12orf56 (ProbeSet 11735607_a_at) / Fold change (Aza/veh), FGFR1OP (ProbeSet 11751329_s_at) / Fold change (ACY-1035/veh), FGFR1OP (ProbeSet 11751329_s_at) / Fold change (Aza/veh), VPS36 (ProbeSet 11739960_a_at) / Fold change (ACY-1035/veh), VPS36 (ProbeSet 11739960_a_at) / RFU SYPL1 (11715823_x_at) / Fold change /veh SYPL1 (11715823_x_at) / RFU IGFBP7 (11715501_s_at) / Fold change /veh IGFBP7 (11715501_s_at) / RFU REEP3 (11722064_at) / Fold change /veh REEP3 (11722064_at) / RFU IGLL1 (11728026_x_at) / Fold change /veh IGLL1 (11728026_x_at): dose or concentration left out as unconfirmed
# Conditions: MV-4-11 cells, 48 hours
compound,measurement,value
Nc1ncn([C@@H]2O[C@H](CO)[C@@H](O)[C@H]2O)c(=O)n1 [azacitidine],Fold change /veh LOC101060620 /// MAPK8IP1 (11723275_at),0.98

# Reference: publication PMC5218480 (PLoS ONE, 2017)
